From ChEMBL document CHEMBL1152192, “Carbonic anhydrase inhibitors. Inhibition of the beta-class enzyme from the yeast Saccharomyces cerevisiae with anions” (Bioorg Med Chem Lett, 2008) come the findings set out here.

Usually Ki stands for the equilibrium dissociation constant of an inhibitor or competing ligand from its target. A high value points to a looser hold on the target.

The structures appear in SMILES notation.

The target of experiment [1] is T1, Carbonic anhydrase (Saccharomyces cerevisiae S288c, UniProt P53615).
T1 sequence (P53615 whole entry): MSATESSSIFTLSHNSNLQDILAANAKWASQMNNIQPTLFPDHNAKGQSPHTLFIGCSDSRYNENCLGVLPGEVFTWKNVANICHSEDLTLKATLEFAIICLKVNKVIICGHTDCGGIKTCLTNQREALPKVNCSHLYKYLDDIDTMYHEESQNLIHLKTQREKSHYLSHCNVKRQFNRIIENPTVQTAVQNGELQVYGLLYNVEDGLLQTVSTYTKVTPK
Description: Inhibition of Saccharomyces cerevisiae carbonic anhydrase by stopped-flow CO2 hydration assay.

Experiment [2] deals with T2, Carbonic anhydrase (Candida albicans (strain SC5314 / ATCC MYA-2876) (Yeast), UniProt Q5AJ71).
T2 sequence (Q5AJ71 whole entry): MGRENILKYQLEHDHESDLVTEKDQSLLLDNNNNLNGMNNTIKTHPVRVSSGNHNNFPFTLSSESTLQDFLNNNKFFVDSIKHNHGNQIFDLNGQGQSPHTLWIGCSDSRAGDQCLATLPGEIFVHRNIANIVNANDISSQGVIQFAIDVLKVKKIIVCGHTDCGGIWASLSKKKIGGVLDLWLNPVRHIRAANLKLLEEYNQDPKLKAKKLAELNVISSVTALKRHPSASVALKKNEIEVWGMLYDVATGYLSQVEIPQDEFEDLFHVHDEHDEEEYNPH
In words: Inhibition of Candida albicans carbonic anhydrase overexpressed in Escherichia coli BL21 (DE3) by CO2 hydration stopped-flow assay.

Experiment [3] addresses T1, Carbonic anhydrase. Description: Inhibition of Saccharomyces cerevisiae carbonic anhydrase overexpressed in Escherichia coli BL21 (DE3) by CO2 hydration stopped-flow assay.

As for `CCOc1ccc2nc(S(N)(=O)=O)sc2c1` [ETHOXZOLAMIDE], the Ki at Carbonic anhydrase [1] was determined as 16 µM.
On to `OB(O)c1ccccc1` [PHENYLBORONIC ACID], for which the Ki on Carbonic anhydrase [2] worked out at 30900 µM; at Carbonic anhydrase [3], 38200 µM.
The corresponding values for `NS(=O)(=O)O` [SULFAMATE] are 700 µM and 840 µM.
Take `NS(N)(=O)=O` [SULFAMIDE]: the Ki came to 300 µM on Carbonic anhydrase [2] and 8.7 µM on Carbonic anhydrase [3].
